Laboratory results as given in US11352350B2, “IRAK degraders and uses thereof” (Kymera Therapeutics, Inc., priority 2018, dated 2022).
Read-outs that look alike come from different tables or passages of the source.

What was measured:
IRAK4 = IRAK4 (Homo sapiens (Human), UniProt Q9NWZ3); experiment: IRAK4 MSD degradation in OCI-LY10; format: cell-based
In short: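 OCI-LY10 cells treated with 8-point 1:3 dilutions (top 1 to 10 μM final) for 4 to 24 h at 37° C. Lysate IRAK4 measured by MSD sandwich immunoassay (2H9 capture, Y279 detection, SULFO-TAG anti-rabbit). DC50 from three-parameter logistic fit.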

OCI-LY10 = experiment: CTG Cell Viability Assay - OCI-LY10; format: cell-based, human; conditions: OCI-LY10, 4 days, read-out: CTG Cell Viability Assay - OCI-LY10: Average external-IC50
In short: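 OCI-LY10 cells exposed to 9-dose, 1:3 dilutions from 10 μM top (0.2% DMSO) for 4 days at 37° C, 5% CO2. Viability by CellTiter-Glo luminescence; IC50 from three-parameter logistic fit.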

[1] = OCI-LY10, 4 hrs, MSD, read-out: IRAK4 MSD degradation in OCI-LY10 at 4 hrs: Average external-Abs DC50
[2] = OCI-LY10, 24 hrs, MSD, read-out: IRAK4 MSD degradation in OCI-LY10 at 24 hrs: Average external-Abs DC50
[3] = OCI-LY10, 4 hrs, read-out: IRAK4 MSD degradation in OCI-LY10 at 4 hrs: DC50
[4] = OCI-LY10, 24 hrs, read-out: IRAK4 MSD degradation in OCI-LY10 at 24 hrs: DC50

IRAK4, sequence (Q9NWZ3 whole entry): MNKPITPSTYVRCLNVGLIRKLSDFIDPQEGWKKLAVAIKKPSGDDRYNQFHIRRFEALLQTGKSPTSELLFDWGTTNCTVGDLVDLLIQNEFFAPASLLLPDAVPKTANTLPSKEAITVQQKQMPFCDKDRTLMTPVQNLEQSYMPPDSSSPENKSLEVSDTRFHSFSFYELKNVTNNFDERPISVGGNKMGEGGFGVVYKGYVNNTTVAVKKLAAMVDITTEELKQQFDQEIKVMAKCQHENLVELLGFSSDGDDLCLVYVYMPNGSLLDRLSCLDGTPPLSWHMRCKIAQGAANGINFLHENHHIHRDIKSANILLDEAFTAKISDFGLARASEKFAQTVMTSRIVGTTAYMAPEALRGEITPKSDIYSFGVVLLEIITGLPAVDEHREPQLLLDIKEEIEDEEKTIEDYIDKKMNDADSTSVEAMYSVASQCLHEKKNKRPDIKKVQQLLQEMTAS

SMILES	DC50 (IRAK4; [1]) [nM]	DC50 (IRAK4; [2]) [nM]	IC50 (OCI-LY10; Homo sapiens, OCI-Ly10, 96 h) [nM]	DC50 (IRAK4; [3]) [nM]	DC50 (IRAK4; [4]) [nM]	IC50 (OCI-LY10) [nM]	IC50 (OCI-LY10; Homo sapiens, 96 h) [nM]
Cc1c[nH]c2ncnc(N[C@H]3CC[C@H](N4CCN(C(=O)CCOCCCc5ccc6c(c5)n(C)c(=O)n6C5CCC(=O)NC5=O)CC4)CC3)c12 (some centres unmarked) [I-24]	> 1000	> 1000	> 1000				
Cn1c(=O)n(C2CCC(=O)NC2=O)c2cccc(CCCOC3CCN(C[C@H]4CC[C@H](n5cc(NC(=O)c6cnn7ccc(N8C(=O)N[C@@H]9[C@H]8CCCC9(F)F)nc67)c(C(F)F)n5)CC4)CC3)c21 (some centres unmarked) [I-291]	10 to 100	10 to 100	< 50				
O=C1CCC(N2C(=O)c3cccc(NCCc4ccc(C5CCN(C[C@H]6CC[C@H](n7cc(NC(=O)c8cnn9ccc(N%10C[C@H]%11C[C@@H]%10CO%11)nc89)c(C(F)F)n7)CC6)CC5)cc4)c3C2=O)C(=O)N1 (some centres unmarked) [I-362]	100 to 1000	10 to 100	500 to 1000				
CN(C(=O)c1cnn2ccc(N3CCOCC3)nc12)c1cn([C@H]2CC[C@H](CN3CCN(Cc4ccc(COc5cccc6c5CN(C5CCC(=O)NC5=O)C6=O)cc4)CC3)CC2)nc1C(F)F (some centres unmarked) [I-503]			< 50	> 1000	> 1000		
Cn1c(=O)n([C@H]2CCC(=O)NC2=O)c2cccc(CCCOC3CCN(C[C@H]4CC[C@H](n5cc(NC(=O)c6cnn7ccc(N8CCOCC8)nc67)c(C(F)F)n5)CC4)CC3)c21 [I-310, N-(3-(difluoromethyl)-1-((1r,4r)-4-((4-(3-(1-((S)-2,6-dioxopiperidin-3-yl)-3-methyl-2-oxo-2,3-dihydro-1H-benzo [d]imidazol-4-yl)propoxy)piperidin-1-yl)methyl)cyclohexyl)-1H-pyrazol-4-yl)-5-morpholinopyrazolo[1,5-a]pyrimidine-3-carboxamide]	< 10		> 1000				
CN(C[C@H]1CC[C@H](n2cc(NC(=O)c3cnn4ccc(N5C[C@H]6C[C@@H]5CO6)nc34)c(C(F)F)n2)CC1)[C@H]1CC[C@H](Nc2cccc3c2C(=O)N(C2CCC(=O)NC2=O)C3=O)CC1 (some centres unmarked) [I-463]			100 to 500	10 to 100	< 10		
NCCCOCCCNC[C@H]1CC[C@H](n2cc(NC(=O)c3coc(-c4ccnc(NCC5CC5)c4)n3)c(C(F)F)n2)CC1 [I-235]	> 1000	> 1000	> 1000				
O=C1CCC(N2Cc3c(OC4CC5(CCN(C[C@H]6CC[C@H](n7cc(NC(=O)c8cnn9ccc(N%10C[C@H]%11C[C@@H]%10CO%11)nc89)c(C(F)F)n7)CC6)CC5)C4)cccc3C2=O)C(=O)N1 (some centres unmarked) [I-328]	10 to 100	< 10	< 50				
CC[C@@H]1[C@H](F)C(=O)N[C@@H]1COc1ncc(C#C[C@H]2CC[C@H](CN3CCO[C@@H](COCCCNc4cccc5c4C(=O)N(C4CCC(=O)NC4=O)C5=O)C3)CC2)c2cc(C(N)=O)c(OC)cc12 (some centres unmarked) [I-342]	100 to 1000		50 to 100				
Cn1c(=O)n(C2CCC(=O)NC2=O)c2ccc(CCCOCCOCCOCCOCC(=O)N3CCN([C@H]4CC[C@H](Nc5ncnn6ccc(C7CCOCC7)c56)CC4)CC3)cc21 (some centres unmarked) [I-20]	> 1000	> 1000	> 1000				
O=C1CCC(N2Cc3c(NCC4CCN(C[C@H]5CC[C@H](C6N=C(NC(=O)c7cnn8ccc(N9C[C@H]%10C[C@@H]9CO%10)nc78)C(C(F)F)=N6)CC5)CC4)cccc3C2=O)C(=O)N1 (some centres unmarked) [I-380]	100 to 1000	10 to 100	> 1000				
O=C1CCC(N2C(=O)c3cccc(NCCCOC4CCN(C[C@H]5CC[C@H](n6cc(NC(=O)c7cnn8ccc(N[C@@H]9CCCC[C@@H]9O)nc78)c(C(F)F)n6)CC5)CC4)c3C2=O)C(=O)N1 (some centres unmarked) [I-294]	10 to 100		< 50				
CN(C(=O)c1cnn2ccc(N3CCOCC3)nc12)c1cn([C@H]2CC[C@H](CN3CCC(OCCCNc4cccc5c4C(=O)N(C4CCC(=O)NC4=O)C5=O)CC3)CC2)nc1C(F)F (some centres unmarked) [I-501]			50 to 100	> 1000	> 1000		
O=C1CCC(N2C(=O)c3cccc(NCCCCCCC[C@H]4CC[C@H](n5cc(NC(=O)c6cnn7ccc(N8C[C@H]9C[C@@H]8CO9)nc67)c(C(F)F)n5)CC4)c3C2=O)C(=O)N1 (some centres unmarked) [I-354]	> 1000		> 1000				
Cc1nc2cccc(N(C)CCCOC3CCN(C[C@H]4CC[C@H](n5cc(NC(=O)c6cnn7ccc(N8CCOCC8)nc67)c(C(F)F)n5)CC4)CC3)c2c(=O)n1C1CCC(=O)NC1=O (some centres unmarked) [I-214]	> 1000	> 1000	> 1000				
CN(CCCN1CCO[C@@H](CNc2cccc3c2C(=O)N(C2CCC(=O)NC2=O)C3=O)C1)C[C@H]1CC[C@H](n2cc(NC(=O)c3cnn4ccc(N5C[C@H]6C[C@@H]5CO6)nc34)c(C(F)F)n2)CC1 (some centres unmarked) [I-347]	100 to 1000	10 to 100	< 50				

SMILES	DC50 (IRAK4; [1]) [nM]	DC50 (IRAK4; [2]) [nM]	IC50 (OCI-LY10; Homo sapiens, OCI-Ly10, 96 h) [nM]	DC50 (IRAK4; [3]) [nM]	DC50 (IRAK4; [4]) [nM]	IC50 (OCI-LY10) [nM]	IC50 (OCI-LY10; Homo sapiens, 96 h) [nM]
CN(C[C@H]1CC[C@H](n2cc(NC(=O)c3cnn4ccc(N5CCOCC5)nc34)c(C(F)F)n2)CC1)[C@H]1CC[C@@H](Nc2cccc3c2C(=O)N(C2CCC(=O)NC2=O)C3=O)CC1 (some centres unmarked) [I-350]	100 to 1000	10 to 100	> 1000				
O=C1CCC(N2C(=O)c3cccc(NCCCCC[C@@H]4CN(C[C@H]5CC[C@H](n6cc(NC(=O)c7cnn8ccc(N9C[C@H]%10C[C@@H]9CO%10)nc78)c(C(F)F)n6)CC5)CCO4)c3C2=O)C(=O)N1 (some centres unmarked) [I-460]			50 to 100	100 to 1000	10 to 100		
CN(C[C@@H]1CN(CCCCc2cccc3c2C(=O)N(C2CCC(=O)NC2=O)C3=O)CCO1)C[C@H]1CC[C@H](n2cc(NC(=O)c3coc(-c4ccnc(NCC5CC5)c4)n3)c(C(F)F)n2)CC1 (some centres unmarked) [I-343]	10 to 100					< 50	
CN(CC1CCN(c2cccc3c2C(=O)N(C2CCC(=O)NC2=O)C3=O)CC1)C[C@H]1CC[C@H](n2cc(NC(=O)c3cnn4ccc(N5CCOCC5)nc34)c(C(F)F)n2)CC1 (some centres unmarked) [I-220]	> 1000	100 to 1000	> 1000				
Cn1c(=O)n(C2CCC(=O)NC2=O)c2ccc(CCCOCCOCC(F)CNC(=O)c3cnc(Nc4ccc5cnccc5n4)cc3NC3CC3)cc21 (centres unmarked) [I-138]	> 1000	> 1000	> 1000				
CC[C@@H]1[C@H](F)C(=O)N[C@@H]1COc1ccc(-c2ncn(CN(C)CCCOCCCc3cccc4c3n(C)c(=O)n4C3CCC(=O)NC3=O)n2)c2cc(C(N)=O)c(OC)cc12 (some centres unmarked) [I-188]	100 to 1000	100 to 1000	> 1000				
Cn1c(=O)n(C2CCC(=O)NC2=O)c2cccc(-c3cccc(CCCOCc4ccc(-n5cc(NC(=O)c6cnn7ccc(N8CCOCC8)nc67)c(C(F)F)n5)cc4)c3)c21 (centres unmarked) [I-409]	> 1000		> 1000				
O=C1CCC(N2Cc3c(NCCCOC4CCN(C[C@H]5CC[C@H](n6cc(NC(=O)c7cnn8ccc(N9CCOCC9)nc78)c(C(F)F)n6)CC5)CC4)cccc3C2=O)C(=O)N1 (some centres unmarked) [I-330]		< 10	> 1000				
CN1C(=O)C(C2CCC(=O)NC2=O)c2cccc(CCCOC3CCN(C[C@H]4CC[C@H](n5cc(NC(=O)c6cnn7ccc(N8CC9(COC9)C8)nc67)c(C(F)F)n5)CC4)CC3)c21 (some centres unmarked) [I-287]	< 10		> 1000				
CN(C[C@H]1CC[C@H](n2cc(NC(=O)c3cnn4ccc(N5CCOCC5)nc34)c(C(F)F)n2)CC1)C1CCN(Cc2cccc3c2n(C)c(=O)n3C2CCC(=O)NC2=O)CC1 (some centres unmarked) [I-213]	< 10		> 1000				
CN[C@@H](C)C(=O)N[C@H](C(=O)N1Cc2cc(OCCOCCOCCOCCNC[C@H]3CC[C@H](n4cc(NC(=O)c5coc(-c6ccnc(NCC7CC7)c6)n5)c(C(F)F)n4)CC3)ccc2C[C@H]1C(=O)N[C@@H]1CCCc2ccccc21)C(C)(C)C [I-390]	> 1000						> 1000
Cn1c(=O)n(C2CCC(=O)NC2=O)c2cccc(CCCOC3CCN(C(=O)[C@H]4CC[C@H](n5cc(NC(=O)c6cnn7ccc(N8CCNCC8)nc67)c(C(F)F)n5)CC4)CC3)c21 (some centres unmarked) [I-136]	< 10		> 1000				
CC[C@H]1C(COc2ncc(C#C[C@H]3CC[C@H](CN(C)CCN4CCO[C@H](CCNc5cccc6c5C(=O)N(C5CCC(=O)NC5=O)C6=O)C4)CC3)c3cc(C(N)=O)c(OC)cc23)NC(=O)[C@H]1F (some centres unmarked) [I-334]	100 to 1000		100 to 500				
COc1cc(C(=O)NCCCCCCN(C)C(=O)[C@H]2CC[C@H](n3cc(NC(=O)c4coc(-c5ccnc(NCC6CC6)c5)n4)c(C(F)F)n3)CC2)ccc1NC(=O)[C@@H]1N[C@@H](CC(C)(C)C)[C@](C#N)(c2ccc(Cl)cc2F)[C@H]1c1cccc(Cl)c1F [I-143]	> 1000	> 1000				> 1000	
O=C1CCC(N2C(=O)c3cccc(NCCCOC4CCN(C[C@H]5OC[C@H](n6cc(NC(=O)c7cnn8ccc(N9CCOCC9)nc78)c(C(F)F)n6)CO5)CC4)c3C2=O)C(=O)N1 (some centres unmarked) [I-451, N-[3-(difluoromethyl)-1-[2-[[4-[3-[[2-(2,6-dioxo-3-piperidyl)-1,3-dioxo-isoindolin-4-yl]amino]propoxy]-1-piperidyl]methyl]-1,3-dioxan-5-yl]pyrazol-4-yl]-5-morpholino-pyrazolo [1,5-a] pyrimidine-3-carboxamide]			100 to 500	10 to 100	10 to 100		
Cn1c(=O)n(C2CCC(=O)NC2=O)c2cccc(CCCOC3CCN(C[C@H]4CC[C@H](n5cc(NC(=O)c6cnn7ccc(NCC8CC8)nc67)c(C(C)(C)O)n5)CC4)CC3)c21 (some centres unmarked) [I-267]	100 to 1000					> 1000	
